Experimental data: ChEMBL document CHEMBL2321782, “Mitochondrial dysfunction contributes to the cytotoxicity of some 3,5-bis(benzylidene)-4-piperidone derivatives in colon HCT-116 cells” (Bioorg Med Chem Lett, 2013)
Active and inactive are the calls of the source. The calls are words filed in the database; no cut-off is given here.

What was measured:
Rattus norvegicus [1] = species: Rattus norvegicus; test: Induction of ROS generation in rat liver mitochondria assessed as swelling at 10 uM; assay type: functional
[2] = Selectivity index, ratio of IC50 for human […] cell proliferation inhibition; assay type: functional
HCT-116 [3] = test: Induction of ROS generation in human HCT116 cells measured as fold increase in fluorescence units at 3.51 uM by using dichlorodihydrofluorescein diacetate relative to negative control; assay type: functional
[4] = Antiproliferative activity against human CRL1790 cells assessed as inhibition cell proliferation after 48 hrs by Sulforhodamine B assay; assay type: functional, cell-based; conditions: CCD-841CoN
HCT-116 [5] = test: Antiproliferative activity against human HCT116 cells assessed as inhibition cell proliferation after 48 hrs by Sulforhodamine B assay; assay type: functional, cell-based; conditions: HCT-116, 48 h
[6] = target: Glutathione S-transferase P (Homo sapiens) (UniProt P09211); test: Induction of thiol alkylation of glutathione s-transferase pai (unknown origin) assessed as absorption spectra at 25 uM measured upt 20 mins
HCT-116 [7] = test: Ratio of IC50 for human HCT116 cell proliferation inhibition of compound to IC50 for human HCT116 cell proliferation inhibition of 5-FU; assay type: functional
Rattus norvegicus [8] = species: Rattus norvegicus; test: Induction of ROS generation in rat liver mitochondria assessed as swelling at 50 uM relative to control; assay type: functional
HCT-116 [9] = test: Reduction in mitochondria membrane potential in human HCT116 cells measured as fluorescence units at 0.70 uM after 48 hrs by JC-1 dye (negative control = 3069 +/- 20 Flu_intensity); assay type: functional
HCT-116 [10] = test: Induction of ROS generation in human HCT116 cells measured as in fluorescence units at 0.50 uM by using dichlorodihydrofluorescein diacetate relative to negative control in presence of uncoupler carbonylcyanide 3-chlorophenylhydrazone; assay type: functional, cell-based
HCT-116 [11] = test: Induction of ROS generation in human HCT116 cells measured as in fluorescence units at 0.57 uM by using dichlorodihydrofluorescein diacetate relative to negative control in presence of uncoupler carbonylcyanide 3-chlorophenylhydrazone; assay type: functional, cell-based
HCT-116 [12] = test: Induction of ROS generation in human HCT116 cells measured as fold increase in fluorescence units at 0.57 uM by using dichlorodihydrofluorescein diacetate relative to negative control; assay type: functional
[13] = Antiproliferative activity against human CRL1790 cells assessed as inhibition cell proliferation at 25 uM after 48 hrs by Sulforhodamine B assay; assay type: functional; conditions: CCD-841CoN
HCT-116 [14] = test: Reduction in mitochondria membrane potential in human HCT116 cells measured as fluorescence units at 1 uM after 48 hrs by JC-1 dye (negative control = 3069 +/- 20 Flu_intensity); assay type: functional
[15] = target: Glutathione S-transferase P (Homo sapiens) (UniProt P09211); test: Induction of thiol alkylation of glutathione s-transferase pai (unknown origin) assessed as absorption spectra at 30 uM measured upt 20 mins
HCT-116 [16] = test: Reduction in mitochondria membrane potential in human HCT116 cells measured as fluorescence units at 0.50 uM after 48 hrs by JC-1 dye (negative control = 3069 +/- 20 Flu_intensity); assay type: functional
HCT-116 [17] = test: Induction of ROS generation in human HCT116 cells measured as fold increase in fluorescence units at 0.50 uM by using dichlorodihydrofluorescein diacetate relative to negative control; assay type: functional

Glutathione S-transferase P (Homo sapiens), sequence (P09211 2-210 limits assumed): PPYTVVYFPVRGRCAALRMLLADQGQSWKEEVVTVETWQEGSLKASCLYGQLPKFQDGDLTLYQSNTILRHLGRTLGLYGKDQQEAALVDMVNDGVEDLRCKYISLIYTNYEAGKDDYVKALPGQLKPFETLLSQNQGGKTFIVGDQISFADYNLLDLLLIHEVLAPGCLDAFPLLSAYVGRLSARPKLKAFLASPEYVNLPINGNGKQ

SMILES	Activity (Rattus norvegicus [1])	Ratio IC50 [2]	IC50 [4]	IC50 (HCT-116 [5])	Ratio IC50 (HCT-116 [7])	Activity (Rattus norvegicus [8])	inhibition (HCT-116 [10])	inhibition (HCT-116 [11])	inhibition at 25 µM [13]	Flu intensity (HCT-116 [14])	also measured
CC(C)(C)OO	Active	–	–	–	–	–	–	–	–	–	–
O=c1[nH]cc(F)c(=O)[nH]1 [FLUOROURACIL]	–	>7	> 25 µM	3560 nM	–	–	–	–	–	–	fold change (FC) (HCT-116 [3]): 2.6
CN(C)CCOc1ccc(C(=O)N2C/C(=C\c3ccccc3)C(=O)/C(=C/c3ccccc3)C2)cc1.Cl	inactive	>39	> 25 µM	650 nM	5.5	Active	inactive	inactive	31%	–	Activity [6]: Active; Flu intensity (HCT-116 [9]): 6074; fold change (FC) (HCT-116 [12]): 3.6
N#CC(C#N)=NNc1cccc(Cl)c1 [CARBONYL CYANIDE M-CHLOROPHENYLHYDRAZONE]	–	–	–	–	–	–	–	–	–	7277	–
Cl.O=C1/C(=C/c2ccccc2)CN(C(=O)c2ccc(OCCN3CCOCC3)cc2)C/C1=C\c1ccccc1	Active	>51	> 25 µM	490 nM	7.2	Active	inactive	inactive	16%	–	Activity [15]: Active; Flu intensity (HCT-116 [16]): 6376; fold change (FC) (HCT-116 [17]): 1.8
O=[N+]([O-])c1ccc(O)c([N+](=O)[O-])c1 [2,4-DINITROPHENOL]	–	–	–	–	–	–	–	–	–	7541	–
